Reference: US12331046B2, “CTPS1 inhibitors and uses thereof” (Nimbus Clotho, Inc., priority 2020, dated 2025)

molecular target: human CTPS1 (Homo sapiens (Human), UniProt P17812); test: hCTPS1 biochemical assay (ADP-Glo); conditions: hCTPS1 25 nM, ATP 120 uM, UTP 160 uM, GTP 60 uM, L-Glutamine 100 uM, 25 degrees C
Sequence (P17812 whole entry): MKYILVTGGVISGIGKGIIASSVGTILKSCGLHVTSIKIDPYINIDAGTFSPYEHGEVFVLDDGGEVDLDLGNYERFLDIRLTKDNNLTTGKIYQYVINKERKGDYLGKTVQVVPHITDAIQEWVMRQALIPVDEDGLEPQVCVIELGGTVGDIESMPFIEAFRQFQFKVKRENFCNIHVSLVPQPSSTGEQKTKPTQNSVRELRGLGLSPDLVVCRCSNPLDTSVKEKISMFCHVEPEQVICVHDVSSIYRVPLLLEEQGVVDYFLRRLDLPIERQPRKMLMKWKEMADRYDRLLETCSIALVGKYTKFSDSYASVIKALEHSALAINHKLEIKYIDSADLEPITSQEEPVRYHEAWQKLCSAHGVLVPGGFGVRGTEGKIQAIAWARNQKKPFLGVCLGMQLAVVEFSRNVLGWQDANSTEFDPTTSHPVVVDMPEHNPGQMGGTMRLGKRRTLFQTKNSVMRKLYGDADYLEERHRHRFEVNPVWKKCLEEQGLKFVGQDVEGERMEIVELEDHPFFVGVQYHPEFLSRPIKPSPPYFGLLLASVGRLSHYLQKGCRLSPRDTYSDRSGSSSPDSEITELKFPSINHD

Structure (SMILES)	IC50 [µM]
CCOc1cncc(-c2cnc(C(=O)N3CCC[C@H]3c3ccnc(NS(=O)(=O)C4CC4)n3)s2)n1 [I-271, N-[4-[(2S)-1-[5-(6-ethoxypyrazin-2-yl)-1,3-thiazole-2-carbonyl]pyrrolidin-2-yl]pyrimidin-2-yl]cyclopropanesulfonamide]	< 0.1
CCOc1cncc(-c2cnc(C(=O)N[C@H](CN(C)C)c3cc(NS(=O)(=O)C4CC4)ccn3)s2)n1 (single isomer, unassigned) [I-233]	< 0.1
CCOc1cncc(-c2cnc(C(=O)NC(CN3CCOCC3(C)C)c3cc(NS(=O)(=O)C4CC4)ccn3)s2)n1 (centres unmarked) [I-122]	< 0.1
CCOc1cncc(-c2cnc(C(=O)N3CCC[C@@H]3c3ccnc(NS(=O)(=O)C4CC4)n3)s2)n1 [I-270, N-[4-[(2R)-1-[5-(6-ethoxypyrazin-2-yl)-1,3-thiazole-2-carbonyl]pyrrolidin-2-yl]pyrimidin-2-yl]cyclopropanesulfonamide]	0.1 to 1
CCOc1cncc(-c2cnc(C(=O)N[C@H](CCN(C)C)c3cccc(NS(=O)(=O)C4CC4)c3)s2)n1 (single isomer, unassigned) [I-143]	≥ 1
CCOc1cncc(-c2cnc(C(=O)NC(CCN(C)C)c3c(F)ccc(NS(=O)(=O)C4CC4)c3F)s2)n1 (centres unmarked) [I-123, N-[1-(3-cyclopropanesulfonamido-2,6-difluorophenyl)-3-(dimethylamino)propyl]-5-(6-ethoxypyrazin-2-yl)-1,3-thiazole-2-carboxamide]	≥ 1
CCOC[C@@H](NC(=O)c1ncc(-c2cncc(OCC)n2)s1)c1cc(NS(=O)(=O)C2CC2)ccn1 [I-97, (S)—N-(1-(4-(cyclopropanesulfonamido)pyridin-2-yl)-2-ethoxyethyl)-5-(6-ethoxypyrazin-2-yl)thiazole-2-carboxamide]	< 0.1
CCOc1cncc(-c2cnc(C(=O)N[C@@H](CCN3CC[C@H](F)C3)c3cc(NS(=O)(=O)C4CC4)ccn3)s2)n1 [I-129, N—((S)-1-(4-(cyclopropanesulfonamido)pyridin-2-yl)-3-((S)-3-fluoropyrrolidin-1-yl)propyl)-5-(6-ethoxypyrazin-2-yl)thiazole-2-carboxamide]	< 0.1
CCOc1cncc(-c2cccc(C(=O)NCc3cccc(NS(=O)(=O)C(F)F)c3)c2)n1 [I-280, N-[[3-(difluoromethanesulfonamido)phenyl]methyl]-3-(6-ethoxypyrazin-2-yl)benzamide]	≥ 1
CCOc1cncc(-c2nnc(C(=O)N[C@@H](CC)c3cc(NS(=O)(=O)C4CC4)ccn3)s2)n1 [I-239]	< 0.1
CCOc1cncc(-c2cnc(C(=O)N[C@H](CN3CC(F)C3)c3cc(NS(=O)(=O)C4CC4)ccn3)s2)n1 (single isomer, unassigned) [I-204]	< 0.1
CCOc1cncc(-c2ccc(C(=O)NCc3cccc(NS(=O)(=O)C(F)(F)F)c3)nc2)n1 [I-53, 5-(6-ethoxypyrazin-2-yl)-N-[[3-(trifluoromethanesulfonamido)phenyl]methyl] pyridine-2-carboxamide]	< 0.1
CCOc1cncc(-c2cnc(C(=O)N[C@H](CCOC)c3cc(NS(=O)(=O)C4CC4)ccn3)s2)n1 [I-184, (R)—N-(1-(4-(cyclopropanesulfonamido)pyridin-2-yl)-3-methoxypropyl)-5-(6-ethoxypyrazin-2-yl)thiazole-2-carboxamide]	< 0.1
CCOc1cncc(-c2ccc(C(=O)NCc3nsc(NS(=O)(=O)C4CC4)n3)cc2)n1 [I-48, N-((5-(cyclopropanesulfonamido)-1,2,4-thiadiazol-3-yl)methyl)-4-(6-ethoxypyrazin-2-yl)benzamide]	< 0.1
CCn1ncc2ncc(-c3cnc(C(=O)NCc4cc(NS(=O)(=O)C5CC5)ccn4)s3)nc21 [I-149, N-((4-(cyclopropanesulfonamido)pyridin-2-yl)methyl)-5-(1-ethyl-1H-pyrazolo[3,4-b]pyrazin-6-yl)thiazole-2-carboxamide]	≥ 1
CCOc1cncc(-c2ccc(NC(=O)C(C)(C)n3ccc(NS(=O)(=O)C4CC4)n3)nc2)n1 [I-19, 2-(3-(cyclopropanesulfonamido)-1H-pyrazol-1-yl)-N-(5-(6-ethoxypyrazin-2-yl)pyridin-2-yl)-2-methylpropanamide]	0.1 to 1
CCOc1cncc(-c2cnc(C(=O)N[C@@H](CCN(C)C)c3cc(NS(=O)(=O)C4CC4)ccn3)s2)n1 [I-190, (S)—N-(1-(4-(cyclopropanesulfonamido)pyridin-2-yl)-3-(dimethylamino)propyl)-5-(6-ethoxypyrazin-2-yl)thiazole-2-carboxamide]	< 0.1
O=C(c1ncc(-c2cnc3[nH]cc(CC(F)F)c3n2)s1)N1CCCC1c1ccnc(NS(=O)(=O)C2CC2)n1 (centres unmarked) [I-137, N-[4-(1-{5-[7-(2,2-difluoroethyl)-5H-pyrrolo[2,3-b]pyrazin-2-yl]-1,3-thiazole-2-carbonyl}pyrrolidin-2-yl)pyrimidin-2-yl] cyclopropanesulfonamide]	< 0.1

Now from value to compound:

IC50 [µM]	Structure (SMILES)
< 0.1	CCOc1cncc(-c2ccc(C(=O)N[C@@H](CC)c3cc(NS(=O)(=O)C4CC4)ccn3)c(F)c2)n1 [I-73]
≥ 1	CCOc1cncc(-c2cnc(C(=O)NC(CCN3CCC3)c3cc(NS(=O)(=O)C4CC4)ccn3)s2)n1 (centres unmarked) [I-182, N-(3-(azetidin-1-yl)-1-(4-(cyclopropanesulfonamido)pyridin-2-yl)propyl)-5-(6-ethoxypyrazin-2-yl)thiazole-2-carboxamide]
≥ 1	O=C(NC1(c2csc(NS(=O)(=O)C3CC3)n2)CC1)c1ccc(-c2cnc3n2CCCC3)cc1 [I-260, N-[1-(2-cyclopropanesulfonamido-1,3-thiazol-4-yl)cyclopropyl]-4-[5H, 6H, 7H, 8H-imidazo[1,2-a]pyridin-3-yl]benzamide]
< 0.1	CCOc1cncc(-c2ccc(C(=O)NCc3cncc(NS(=O)(=O)C4CC4)c3)cc2)n1 [I-36]
< 0.1	CCOc1cncc(-c2ccc(C(=O)NC3(c4cccc(NS(=O)(=O)C(F)F)c4)CC3)cc2)n1 [I-266, N-(1-(3-((difluoromethyl)sulfonamido)phenyl)cyclopropyl)-4-(6-ethoxypyrazin-2-yl)benzamide]
< 0.1	CCOc1cncc(-c2ccc(C(=O)NCc3cnnc(NS(=O)(=O)C4CC4)c3)nc2)n1 [I-246, N-[(6-cyclopropanesulfonamidopyridazin-4-yl)methyl]-5-(6-ethoxypyrazin-2-yl)pyridine-2-carboxamide]
< 0.1	CCOc1cncc(-c2ccc(NC(=O)Cc3cc(NS(=O)(=O)C4CC4)ccn3)cc2)n1 [I-35]
≥ 1	CCC[C@@H]1CCN1c1ncc(C(=O)NCc2cc(NS(=O)(=O)C3CC3)ccn2)nc1C [I-60, (R)—N-((4-(cyclopropanesulfonamido)pyridin-2-yl)methyl)-6-methyl-5-(2-propylazetidin-1-yl)pyrazine-2-carboxamide]
< 0.1	CCOc1cncc(-c2cnc(C(=O)N[C@@H](c3cc(NS(=O)(=O)C4CC4)ccn3)[C@H]3CCOC3)s2)n1 (single isomer, unassigned) [I-92]
< 0.1	CCOc1cncc(-c2cnc(C(=O)N[C@@H](CN3CCOCC3(C)C)c3cc(NS(=O)(=O)C4CC4)ccn3)s2)n1 (single isomer, unassigned) [I-116]
< 0.1	CCOc1cncc(-c2cnc(C(=O)N3CCC[C@@H]3c3cccc(NS(=O)(=O)C4CC4)n3)s2)n1 [I-230, N-[6-[(2R)-1-[5-(6-ethoxypyrazin-2-yl)-1,3-thiazole-2-carbonyl]pyrrolidin-2-yl]pyridin-2-yl]cyclopropanesulfonamide]
